Consider 9 molecules from patent US7417062B2, “Substituted arylamides” (ChemoCentryx, Inc., priority 2004, dated 2008).

pIC50: −log10 of the molar value. Some results are limits rather than exact numbers.

This assay deals with T1, CCXCKR2 receptor (Homo sapiens, UniProt P25106).
T1 construct: host or cells: MCF-7 (endogenous) and/or MDA-MB-435S transfected with hRDC1 in pcDNA3.1(+)
T1 sequence (P25106 whole entry): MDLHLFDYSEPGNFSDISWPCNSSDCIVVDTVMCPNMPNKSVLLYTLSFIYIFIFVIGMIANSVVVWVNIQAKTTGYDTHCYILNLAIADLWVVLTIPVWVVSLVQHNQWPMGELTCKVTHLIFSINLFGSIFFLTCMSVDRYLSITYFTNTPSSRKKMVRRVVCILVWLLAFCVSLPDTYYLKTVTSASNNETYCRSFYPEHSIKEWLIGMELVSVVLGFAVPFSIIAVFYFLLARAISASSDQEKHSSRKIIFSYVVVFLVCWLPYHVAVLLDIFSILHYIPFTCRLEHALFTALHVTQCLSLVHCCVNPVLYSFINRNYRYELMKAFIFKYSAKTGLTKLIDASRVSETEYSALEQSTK
The assay is described as follows: Displacement of 125I-labeled SDF-1 from the CCXCKR2 receptor (radioligand binding, determination of IC50 values). Particulars: MCF-7 and/or MDA-MB-435S cells expressing CCXCKR2; 125I SDF-1; 3 hr at 4° C.; read-out: Activity (ability to displace 125I SDF-1 from CCXCKR2). The procedure, abridged: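 Whole-cell filtration binding on MCF-7 and/or MDA-MB-435S cells stably transfected with human CCXCKR2, with compounds at multiple concentrations competing with 125I-SDF-1. Incubation was 3 hr at 4° C in HEPES buffer (CaCl2, MgCl2, 0.2% BSA, pH 7.1). Bound radioactivity was collected on PEI-treated GF/B filters and counted by scintillation to give IC50.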
In general terms: Loss of bound radioactivity is the signal in a displacement assay; it reports binding, not function.
Take `COc1cc(C(=O)N(Cc2ccc3ccccc3n2)CC2CNC2)cc2c1OC(C)(C)O2` [Example 48, 7-Methoxy-2,2-dimethyl-benzo[1,3]dioxole-5-carboxylic acid azetidin-3-ylmethyl-quinolin-2-ylmethyl-amide]: the pIC50 was more than 6.30.

Take `CCOC(=O)c1ccc(-c2cccc(N(C[C@@H]3CCCN3CC3CC3)C(=O)c3ccc(OC)c(OC)c3)c2)cc1` [Example 36, (S)-3′-[(1-Cyclopropylmethyl-pyrrolidin-2-ylmethyl)-(3,4-dimethoxy-benzoyl)-amino]-biphenyl-4-carboxylic acid ethyl ester]: the pIC50 is more than 5.00.

As for `COc1cc(C(=O)N(Cc2ccc3cccnc3n2)C[C@@H]2C[C@@H]3CCCC[C@@H]3N2)cc2c1OC(C)(C)O2` [Example 42, 7-Methoxy-2,2-dimethyl-benzo[1,3]dioxole-5-carboxylic acid [1,8]naphthyridin-2-ylmethyl-[(2S,3aS,7aS)-1-(octahydro-indol-2-yl)methyl]-amide], the pIC50 is more than 6.30.

As to `COc1cc(C(=O)N(CCC2CCCN2C)Cc2ccc3ccccc3n2)cc(OC)c1OC` (stereo not drawn) [Example 11], the pIC50 is more than 6.30.

As to `COc1cc(C(=O)N(Cc2cc3ccccc3s2)C[C@@H]2C[C@@H]3CCCC[C@@H]3N2)cc2c1OC(C)(C)O2` [Example 61, 7-Methoxy-2,2-dimethyl-benzo[1,3]dioxole-5-carboxylic acid benzo[b]thiophen-2-ylmethyl-[(2S,3aS,7aS)-1-(octahydro-indol-2-yl)methyl]-amide], the pIC50 is more than 6.30.

On to `COc1cc(C(=O)N(Cc2cnc3ccccc3n2)C[C@@H]2CCCN2C2CCC2)cc2c1OC(C)(C)O2` [Example 67, 7-Methoxy-2,2-dimethyl-benzo[1,3]dioxole-5-carboxylic acid ((S)-1-cyclobutyl-pyrrolidin-2-ylmethyl)-quinoxalin-2-ylmethyl-amide], for which the pIC50 was more than 5.70.

With `COc1ccc(C(=O)N(Cc2nc3ccccc3s2)C[C@@H]2CCCN2CCO)cc1OC` [Example 26, N-Benzothiazol-2-yl methyl-(S)—N-[1-(2-hydroxy-ethyl)-pyrrolidin-2-ylmethyl]-3,4-dimethoxy-benzamide], the pIC50 is more than 6.30.

For `COc1cc(C(=O)N(CCCN2CCCCC2C)Cc2ncc(-c3ccccc3)s2)cc(OC)c1OC` (stereo not drawn) [Example 19, 3,4,5-Trimethoxy-N-[3-(2-methyl-piperidin-1-yl)-propyl]-N-(5-phenyl-thiazol-2-ylmethyl)-benzamide], the pIC50 was more than 5.70.

With `COc1cc(C(=O)N(Cc2cc3ccccc3nn2)C[C@@H]2CCCN2C2CCC2)cc2c1OC(C)(C)O2` [Example 74, 7-Methoxy-2,2-dimethyl-benzo[1,3]dioxole-5-carboxylic acid cinnolin-3-ylmethyl-((S)-1-cyclobutyl-pyrrolidin-2-ylmethyl)-amide], the pIC50 is more than 5.70.
